A word on the melting point: it is the temperature of the solid-liquid transition.

Consider `Cc1nc2c(N)nc3ccccc3c2n1CCC1(O)CCCCC1`, for which the melting point is more than 252 °C.

Turning to `COc1ccc(Nc2nc(O)nc(NC3CCCCCC3)n2)cc1Cl`, the melting point was more than 310 °C.

With `CC(=O)Nc1ccc(Oc2ccc3c(c2)OCC(=O)N3)cc1`, the melting point is 230 to 232 °C.

In the case of `CC(C)(C)[Si](C)(C)Oc1ccc(N)c([N+](=O)[O-])c1`, the melting point lay within 80 to 83 °C.

For the compound `Cc1c(Cc2cccc3ccccc23)c(=O)oc2cc(OCc3nnn[nH]3)cc(OCc3nnn[nH]3)c12`, the melting point was 164 to 174 °C.

As for `N#Cc1cc(-c2nc3cncnc3s2)ccc1Oc1ccccc1Cl`, the melting point was 209 to 211 °C.

`Cc1ccc(SCC(CCC(=O)O)C(=O)O)cc1C` (configuration not stated): the melting point lay within 96 to 98 °C.

`COC(=O)[C@H]1[C@@H]2CC[C@@H](C2)[C@@H]1C(=O)O` gave a melting point of 59 to 60 °C.

Take `Cc1ccc(N(C)S(=O)(=O)c2cccs2)c2[nH]c(-c3ncc(CCl)s3)cc12`: the melting point lay in the range of 194 to 195 °C.

With `CON(C)C(=O)Nc1c(C(=O)C2CCCCC2)[nH]c2cc(Cl)ccc12`, the melting point was in the range of 208 to 210 °C.

On to `CCCC1(O)CSC(=S)N1c1cccc(C)n1` (configuration not stated), for which the melting point is 70 °C.

With `COC1=c2ccccc2=c2ccc(Cl)cc2=C(c2ccccc2F)N1`, the melting point was in the range of 136 to 138 °C.

With `Cc1ccc(S(=O)(=O)CC(=O)C(C)(C)C)cc1`, the melting point fell in the range of 119 to 122 °C.

The compound `Cc1cc(CNC(=O)c2nc3n(c(=O)c2O)CCN3C)ccc1F` yielded a melting point of 187 to 189 °C.

The compound `O=C(Nc1ccc(Oc2ccc(C(=O)N3CCC(C(=O)N4CCN(Cc5ccc6c(c5)OCO6)CC4)CC3)cc2)nc1)c1ccc(Cl)c(Cl)c1` gave a melting point of 236 to 238 °C.

Compound `O=C(O)c1c(F)cccc1-c1ccccc1` came in with a melting point of 122 to 125 °C.

Compound `O=C1c2cccnc2-c2cccnc21` gave a melting point of 158 to 159 °C.

Take `N=c1[nH]c2ccncc2c2nc(-c3ccco3)nn12`: the melting point is 320 to 321 °C.

`CCN1CN2C(=N1)C(c1ccccc1Cl)=NCc1ccsc12` came in with a melting point of 153 to 154 °C.

The compound `NC1=Nc2cccc3c(=O)[nH]nc(c23)N1` had a melting point of more than 300 °C.

As for `Clc1ccc(OC2CCC3(CCNCC3)CC2)cc1`, the melting point lay within 140 to 142 °C.

On to `CCc1cccc(NC(=O)NC2CC(C3CCCCC3)c3ccccc3N(CC(=O)NC(C)(C)C)C2=O)c1` (configuration not stated), for which the melting point lay within 145 to 155 °C.

For `CCc1cc(CCc2nc3ccccc3o2)c(=O)[nH]c1C`, the melting point lay in the range of 155 to 156 °C.

`Cc1cccc(-c2ccc(OS(=O)(=O)C(F)(F)F)cc2C=O)c1` displayed a melting point of 60 to 62 °C.

`CC(C)N1CCN(C(=O)c2cc([N+](=O)[O-])cc(C(F)(F)F)c2)CC1` returned a melting point of 70.7 °C.

The compound `CC(=O)Oc1ccc(NC(C)=C2C(=O)OC(=O)C(C(C)=O)=C2O)cc1` came in with a melting point of 199 to 201 °C.

As to `CC(=O)OC(n1cc(C#N)c(-c2cccc(Cl)c2Cl)c1)C(Cl)(Cl)Cl` (configuration not stated), the melting point lay within 111 to 113 °C.

`CCC(=S)NC[C@H]1CN(c2ccc(N3CCN(C(=O)CCC(=O)c4ccc(CN(C)C)cc4)CC3)c(F)c2)C(=O)O1` had a melting point of 169 °C.

On to `Cc1ccc(SCc2ncon2)cc1`, for which the melting point came out at 53 °C.

The compound `ON1C(c2ccccc2)CC2(CC1c1ccccc1)OCCO2` (configuration not stated) yielded a melting point of 161 to 162 °C.

`CN(C)CCC1CN(C)C(=S)c2cc([N+](=O)[O-])ccc2O1` (configuration not stated) displayed a melting point of 104 to 109 °C.

Consider `COc1ccc(C=Cc2cc3cc(Br)ccc3o2)cc1`, for which the melting point lay in the range of 190 to 194 °C.

`CN(CCO)Cc1cc(C(=O)c2ccccc2)cc(C2CCCCC2)c1O` yielded a melting point of 92 to 93 °C.

Consider `CC(C)(C)NC(=O)c1nn(-c2ccc(C(C)(C)C)cc2)c2c1C1CCC2C1` (configuration not stated), for which the melting point lay in the range of 148 to 150 °C.

Turning to `N#Cc1cccc2c1CCCc1ccccc1-2`, the melting point was 109 to 111 °C.

For `NS(=O)(=O)c1ccc(-n2nc(CNC(=O)Nc3cccc(C(F)(F)F)c3)cc2-c2ccccc2)cc1`, the melting point was 185 to 190 °C.

In turn, `COc1ccc(Cn2c(N)c(C#N)c3c2CCCC3)cc1` showed a melting point of 122 to 126 °C.

The compound `CCOc1ccc(-c2cc(C(F)(F)F)n3ncc(-c4ccnc(C)c4)c3n2)cc1C(F)(F)F` yielded a melting point of 250 °C.

With `COC(=O)C1C(=O)CCC1CSc1ccccc1` (configuration not stated), the melting point lay within 41 to 42 °C.

`O=C(O)c1ccc(S(F)(F)(F)(F)F)cc1` had a melting point of 188 to 190 °C.

Turning to `O=C(C(=O)c1cccc(OCCCN2CCCC2)c1)c1cccc(OCCCN2CCCC2)c1`, the melting point was in the range of 136 to 139 °C.

In turn, `O=C(O)Cc1csc(N=C2SC[C@@H]3Cc4ccccc4CN23)n1` had a melting point of 185 °C.

Take `CC(C)n1nc(-c2c(OC3CCCCC3)nc(N)nc2-c2ccccc2)ccc1=O`: the melting point lay within 173 to 175 °C.

As for `CCCOC(=O)c1c(-c2ccncc2)[nH]c(-c2ccncc2)c1C`, the melting point fell in the range of 215 to 218 °C.

Take `CCOC(=O)c1ccc(N=C(Nc2ccc(C(=O)OCC)cc2)c2cccc(Cl)c2)cc1`: the melting point fell in the range of 160 to 170 °C.

`CCn1cc(-c2ccccc2)c(=O)c(-c2ccccc2)c1` gave a melting point of 171 °C.

The compound `O=C(O)c1ccc(C2OC2C(=O)c2ccccc2)cc1` (configuration not stated) gave a melting point of 170 to 172 °C.

`CS(=O)(=O)N(c1ccc([N+](=O)[O-])cn1)S(C)(=O)=O` returned a melting point of 175 to 177 °C.

`CCOC(=O)CC(=O)c1cc(F)c(OP(=O)(OCC)OCC)nc1Nc1ccc(F)cc1F` showed a melting point of 127 to 130 °C.

As for `CC(C)(C)C(Cl)=C(C#N)C#N`, the melting point was 52 to 53 °C.

Consider `Cc1nc(NC(=O)c2cnn3c(C(F)(F)F)cc(-c4ccc(C(F)(F)F)cc4)nc23)sc1S(=O)(=O)NC(C)(C)CO`, for which the melting point came to 257 °C.

`CCCc1c[nH]nc1OCc1ccc2ccccc2n1` came in with a melting point of 94 to 95 °C.

`CCCCCCCCCCCCCCCCOCC(=O)O` displayed a melting point of 64 to 66 °C.

The compound `O[C@@H]1[C@H](O)CS[C@H]1n1cnc2c(NCc3ccccc3Cl)nc(Cl)nc21` had a melting point of 199 to 200 °C.

`CCN(CC)CC(=O)OC1CC2(C)C(C(C)=O)CCC2C2CCC3CC(O)C=CC3(C)C12` (configuration not stated) displayed a melting point of 134 to 138 °C.

As to `Nc1ncc(-c2ccccc2)nc1Oc1ccccc1`, the melting point lay within 129 to 131 °C.

`Cc1ccc(-c2nc(-c3ccc(C)cc3)nc(-c3ccc(C)cc3)n2)cc1` displayed a melting point of 282 to 285 °C.

`CS(=O)(=O)On1nnc2c(Cl)cccc21` returned a melting point of 71 to 74 °C.

Consider `O=C(CCc1ccccc1)Oc1n[nH]c(=O)c2nc3cc(Cl)ccc3c(O)c12`, for which the melting point is more than 300 °C.

Take `Cn1c(Cl)cnc1C#N`: the melting point lay in the range of 87 to 89 °C.

For the compound `COc1cccc(CNc2n[nH]c3ncnc(Nc4cccc(Cl)c4)c23)c1`, the melting point fell in the range of 192 to 193 °C.

Take `Cc1ccc(SN(C)C=Nc2ccc(Cl)cc2C)cc1`: the melting point fell in the range of 49 to 50.5 °C.

For the compound `CN(C)c1cccc2c(S(=O)(=O)Nc3ccc(Cl)nn3)cccc12`, the melting point fell in the range of 153 to 154 °C.

Compound `CC(Oc1ccc(Oc2ncc(C(F)(F)F)cc2Cl)cc1)C(=O)Nc1ccc(C(F)(F)F)cc1` (configuration not stated) yielded a melting point of 140 to 143 °C.

`O=C1CCCCCCCCCCC(=O)O1` yielded a melting point of 85 to 89 °C.

In turn, `CCCCc1cnc(-c2cnc(-c3ccc(F)cc3)nc2)nc1` came in with a melting point of 196 °C.

Regarding `CCCCNC(=O)C(O[Si](C)(C)C(C)(C)C)C(C)(C)C` (configuration not stated), the melting point was in the range of 41 to 42 °C.

`O=C1C2CCCCN2C(=O)N1c1c(F)cc(Cl)c2nc(Cl)sc12` (configuration not stated) came in with a melting point of 168 to 170 °C.

In turn, `CC(C)(C)OC(=O)Nc1ccc(-c2ccoc2)cc1[N+](=O)[O-]` returned a melting point of 105 to 110 °C.

In turn, `CC(=O)Oc1ccc(C2CC(=O)OC(=O)C2)cc1` showed a melting point of 140 to 143 °C.

For the compound `Cc1oc(-c2ccccc2)nc1Cc1cc2cc(C=O)ccc2o1`, the melting point was 116 to 118 °C.

The compound `Cc1cnn(-c2ccccc2)c1-c1nn(-c2cccc(C(F)(F)F)c2)ccc1=O` displayed a melting point of 208 to 211 °C.

The compound `O=C(Oc1ccc(F)cc1)Oc1ccc(F)cc1` registered a melting point of 122 to 123 °C.

The compound `CCCCCCCc1ccc2cc(-c3ncc(CC)cn3)ccc2c1` returned a melting point of 62.3 to 63.1 °C.

In turn, `NC(=O)C=Cc1cccc(Cl)c1` had a melting point of 180 °C.

Consider `COC(=O)CCc1ccc(OCc2cccc(-c3cccc(CO)c3)c2)cc1`, for which the melting point lay in the range of 185 to 188 °C.

Compound `CCOC(=O)c1cc(C(=O)c2cccc(S(=O)(=O)F)c2)sc1N` came in with a melting point of 168 to 170 °C.

`CCOC(=O)CS(=O)CCNC(=O)OCC` (configuration not stated) came in with a melting point of 73.8 to 77 °C.

`CCN(CC)C(=O)c1cc(-c2cccs2)c2occc2c1` gave a melting point of 64 °C.

`COCc1cc2c3ccccc3n(C)c(=O)n2n1` returned a melting point of 98 to 100 °C.

`CC(C)(C)C(=O)C=Cc1ccc(C2OCCO2)cc1` came in with a melting point of 79 to 81 °C.

In the case of `N#CC1(c2ccccc2)CCN(Cc2ccccc2)CC1`, the melting point is 73 to 74 °C.

In the case of `Cc1cc2c(-c3ccccc3)c(C(=O)NCc3cc(C(F)(F)F)cc(C(F)(F)F)c3)n(CC(N)=O)c(=O)c2cc1C`, the melting point was in the range of 235 to 237 °C.

For `CCOC(=O)CS(=O)(=O)Nc1ccccc1CC(=O)OC`, the melting point lay in the range of 86 to 88 °C.

`CCOC(=O)Cn1c(=O)n(Cc2ccc(Cl)c(Cl)c2)c(=O)c2c(C)c(Br)sc21` returned a melting point of 166 to 167 °C.

In the case of `N#Cc1c[nH]cc1-c1cccc2c1OCO2`, the melting point was in the range of 206 to 208 °C.

Consider `CS(=O)(=O)c1ccc(-n2nc(C(F)(F)F)cc2-c2nc3ccc(Cl)cc3s2)cc1`, for which the melting point is 195 to 196 °C.

`COc1ccccc1NC(=O)Nc1nc(NCCC(=O)O)nc(Nc2ccccc2-c2ccccc2)n1` came in with a melting point of 196 to 205 °C.

As for `COc1ccc(-c2nc(O)cc(O)n2)cc1`, the melting point came to 318 °C.

The compound `Cc1cnc2c(=O)[nH]c3cc(Cl)c(Cl)cc3n12` showed a melting point of more than 300 °C.

As to `CCOC(=O)c1ccc(OCCCCCCc2cccc(O)c2O)cc1`, the melting point lay in the range of 45 to 47 °C.

Take `CN1CC(CCN2CC(=O)NC2=O)CC2c3cccc4[nH]cc(c34)CC21` (configuration not stated): the melting point is 242 to 244 °C.

The values above are taken from a melting point compilation (Tetko et al.; mined from patent text by program, amines drawn as free bases though some values may be those of a salt).
